How the values were obtained:
barnyardgrass [1] = assay: Test C preemergence; type: in vivo, Echinochloa crusgalli; conditions: preemergence, 0 to 100 scale (0 no effect, 100 complete control)
Method in brief: (§1)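 Greenhouse herbicide screen, 10-day duration. Test chemicals in solvent/surfactant blend were sprayed onto soil at sowing (pre) or onto 2–10 cm seedlings at one to two leaves (post); injury scored visually against controls, 0 no effect to 100 complete control.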

blackgrass [2] = assay: Test C preemergence; type: in vivo, Alopecurus myosuroides; conditions: 500 g ai/ha, preemergence; 0 to 100 scale (0 no effect, 100 complete control)
Method in brief: as §1

corn [3] = assay: Test C preemergence; type: in vivo, Zea mays; conditions: preemergence, 0 to 100 scale (0 no effect, 100 complete control)
Method in brief: as §1

green foxtail [4] = assay: Test C preemergence; type: in vivo, Setaria viridis; conditions: preemergence, 0 to 100 scale (0 no effect, 100 complete control)
Method in brief: as §1

kochia [5] = assay: Test C preemergence; type: in vivo, Bassia scoparia; conditions: preemergence, 0 to 100 scale (0 no effect, 100 complete control)
Method in brief: as §1

oat, wild [6] = assay: Test C preemergence; type: in vivo, Avena fatua; conditions: preemergence, 0 to 100 scale (0 no effect, 100 complete control)
Method in brief: as §1

pigweed, palmer [7] = assay: Test C preemergence; type: in vivo, Amaranthus palmeri; conditions: preemergence, 0 to 100 scale (0 no effect, 100 complete control)
Method in brief: as §1

ragweed [8] = assay: Test C preemergence; type: in vivo, Ambrosia artemisiifolia; conditions: preemergence, 0 to 100 scale (0 no effect, 100 complete control)
Method in brief: as §1

ryegrass, Italian [9] = assay: Test C preemergence; type: in vivo, Lolium multiflorum; conditions: preemergence, 0 to 100 scale (0 no effect, 100 complete control)
Method in brief: as §1

soybean [10] = assay: Test C preemergence; type: in vivo, Glycine max; conditions: preemergence, 0 to 100 scale (0 no effect, 100 complete control)
Method in brief: as §1

wheat [11] = assay: Test C preemergence; type: in vivo, Triticum aestivum; conditions: preemergence, 0 to 100 scale (0 no effect, 100 complete control)
Method in brief: as §1

barnyardgrass [12] = assay: Test C postemergence; type: in vivo, Echinochloa crusgalli; conditions: 10 days, 0 to 100 scale (0 no effect, 100 complete control)
Method in brief: as §1

blackgrass [13] = assay: Test C postemergence; type: in vivo, Alopecurus myosuroides; conditions: 10 days, 0 to 100 scale (0 no effect, 100 complete control)
Method in brief: as §1

corn [14] = assay: Test C postemergence; type: in vivo, Zea mays; conditions: 10 days, 0 to 100 scale (0 no effect, 100 complete control)
Method in brief: as §1

green foxtail [15] = assay: Test C postemergence; type: in vivo, Setaria viridis; conditions: 10 days, 0 to 100 scale (0 no effect, 100 complete control)
Method in brief: as §1

kochia [16] = assay: Test C postemergence; type: in vivo, Bassia scoparia; conditions: 10 days, 0 to 100 scale (0 no effect, 100 complete control)
Method in brief: as §1

oat, wild [17] = assay: Test C postemergence; type: in vivo, Avena fatua; conditions: 10 days, 0 to 100 scale (0 no effect, 100 complete control)
Method in brief: as §1

pigweed, palmer [18] = assay: Test C postemergence; type: in vivo, Amaranthus palmeri; conditions: 10 days, 0 to 100 scale (0 no effect, 100 complete control)
Method in brief: as §1

ragweed [19] = assay: Test C postemergence; type: in vivo, Ambrosia artemisiifolia; conditions: 10 days, 0 to 100 scale (0 no effect, 100 complete control)
Method in brief: as §1

ryegrass, Italian [20] = assay: Test C postemergence; type: in vivo, Lolium multiflorum; conditions: 10 days, 0 to 100 scale (0 no effect, 100 complete control)
Method in brief: as §1

soybean [21] = assay: Test C postemergence; type: in vivo, Glycine max; conditions: 10 days, 0 to 100 scale (0 no effect, 100 complete control)
Method in brief: as §1

wheat [22] = assay: Test C postemergence; type: in vivo, Triticum aestivum; conditions: 10 days, 0 to 100 scale (0 no effect, 100 complete control)
Method in brief: as §1

galium = assay: Test C postemergence; type: in vivo, Galium aparine; conditions: 10 days, 0 to 100 scale (0 no effect, 100 complete control)
Method in brief: as §1

horseweed = assay: Test C postemergence; type: in vivo, Erigeron canadensis; conditions: 10 days, 0 to 100 scale (0 no effect, 100 complete control)
Method in brief: as §1

barnyardgrass [23] = assay: Test D flooded paddy test; type: in vivo, Echinochloa crus-galli; conditions: 250 g ai/ha, applied to paddy water, visual rating after 13 to 14 days, scale 0 to 100 (0 no effect, 100 complete control)
Method in brief: (§2)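 Seedlings reached the 2-leaf stage, then pots were flooded to 3 cm over the soil surface. Compound was applied into the water, depth was maintained, and plants stayed in the greenhouse 13 to 14 days before visual scoring (0–100) relative to controls.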

ducksalad = assay: Test D flooded paddy test; type: in vivo, Heteranthera limosa; conditions: 250 g ai/ha, applied to paddy water, visual rating after 13 to 14 days, scale 0 to 100 (0 no effect, 100 complete control)
Method in brief: as §2

rice = assay: Test D flooded paddy test; type: in vivo, Oryza sativa; conditions: 250 g ai/ha, applied to paddy water, visual rating after 13 to 14 days, scale 0 to 100 (0 no effect, 100 complete control)
Method in brief: as §2

sedge, umbrella = assay: Test D flooded paddy test; type: in vivo, Cyperus difformis; conditions: 250 g ai/ha, applied to paddy water, visual rating after 13 to 14 days, scale 0 to 100 (0 no effect, 100 complete control)
Method in brief: as §2

Compound: Cc1cccc2c1O[C@@H](C)CN2C(=O)c1cccc(-n2cnc([N+](=O)[O-])n2)c1 [Compound 306]
- Barnyardgrass plant response rating (barnyardgrass [1]; 500 g ai/ha): 0
- Barnyardgrass plant response rating (barnyardgrass [1]; Test C, 125 g ai/ha): 0
- Blackgrass plant response rating (blackgrass [2]): 0
- Corn plant response rating (corn [3]; 500 g ai/ha): 0
- Corn plant response rating (corn [3]; Test C, 125 g ai/ha): 0
- Foxtail, Green plant response rating (green foxtail [4]; 500 g ai/ha): 50
- Foxtail, Green plant response rating (green foxtail [4]; Test C, 125 g ai/ha): 0
- Kochia plant response rating (kochia [5]; 500 g ai/ha): 0
- Kochia plant response rating (kochia [5]; Test C, 125 g ai/ha): 0
- Oat, Wild plant response rating (oat, wild [6]; 500 g ai/ha): 0
- Oat, Wild plant response rating (oat, wild [6]; Test C, 125 g ai/ha): 0
- Pigweed, Palmer plant response rating (pigweed, palmer [7]; 500 g ai/ha): 10
- Pigweed, Palmer plant response rating (pigweed, palmer [7]; Test C, 125 g ai/ha): 0
- Ragweed plant response rating (ragweed [8]; 500 g ai/ha): 20
- Ragweed plant response rating (ragweed [8]; Test C, 125 g ai/ha): 20
- Ryegrass, Italian plant response rating (ryegrass, Italian [9]; 500 g ai/ha): 40
- Ryegrass, Italian plant response rating (ryegrass, Italian [9]; Test C, 125 g ai/ha): 30
- Soybean plant response rating (soybean [10]; 500 g ai/ha): 0
- Soybean plant response rating (soybean [10]; Test C, 125 g ai/ha): 0
- Wheat plant response rating (wheat [11]; 500 g ai/ha): 0
- Wheat plant response rating (wheat [11]; Test C, 125 g ai/ha): 0
- Plant response rating, Barnyardgrass (barnyardgrass [12]; 500 g ai/ha, postemergence): 10
- Plant response rating, Barnyardgrass (barnyardgrass [12]; Postemergence, 125 g ai/ha): 10
- Plant response rating, Blackgrass (blackgrass [13]; 500 g ai/ha, postemergence): 10
- Plant response rating, Blackgrass (blackgrass [13]; Postemergence, 125 g ai/ha): 0
- Plant response rating, Corn (corn [14]; 500 g ai/ha, postemergence): 10
- Plant response rating, Corn (corn [14]; Postemergence, 125 g ai/ha): 0
- Plant response rating, Foxtail, Green (green foxtail [15]; 500 g ai/ha, postemergence): 50
- Plant response rating, Foxtail, Green (green foxtail [15]; Postemergence, 125 g ai/ha): 30
- Plant response rating, Kochia (kochia [16]; 500 g ai/ha, postemergence): 10
- Plant response rating, Kochia (kochia [16]; Postemergence, 125 g ai/ha): 10
- Plant response rating, Oat, Wild (oat, wild [17]; 500 g ai/ha, postemergence): 0
- Plant response rating, Oat, Wild (oat, wild [17]; Postemergence, 125 g ai/ha): 0
- Plant response rating, Pigweed, Palmer (pigweed, palmer [18]; 500 g ai/ha, postemergence): 20
- Plant response rating, Pigweed, Palmer (pigweed, palmer [18]; Postemergence, 125 g ai/ha): 0
- Plant response rating, Ragweed (ragweed [19]; 500 g ai/ha, postemergence): 0
- Plant response rating, Ragweed (ragweed [19]; Postemergence, 125 g ai/ha): 30
- Plant response rating, Ryegrass, Italian (ryegrass, Italian [20]; 500 g ai/ha, postemergence): 0
- Plant response rating, Ryegrass, Italian (ryegrass, Italian [20]; Postemergence, 125 g ai/ha): 0
- Plant response rating, Soybean (soybean [21]; 500 g ai/ha, postemergence): 90
- Plant response rating, Soybean (soybean [21]; Postemergence, 125 g ai/ha): 30
- Plant response rating, Wheat (wheat [22]; 500 g ai/ha, postemergence): 10
- Plant response rating, Wheat (wheat [22]; Postemergence, 125 g ai/ha): 0
- Plant response rating, Galium (galium; 500 g ai/ha, postemergence): 50
- Plant response rating, Galium (galium; Postemergence, 125 g ai/ha): 30
- Plant response rating, Horseweed (horseweed; 500 g ai/ha, postemergence): 0
- Plant response rating, Horseweed (horseweed; Postemergence, 125 g ai/ha): 30
- Plant response rating, Barnyardgrass (Flood) (barnyardgrass [23]): 0
- Plant response rating, Ducksalad (Flood) (ducksalad): 0
- Plant response rating, Rice (Flood) (rice): 0
- Plant response rating, Sedge, Umbrella (Flood) (sedge, umbrella): 0
